Residues, ends and D or L forms follow the SMILES beside them.
Columns and labels:
[1] = target: T1, PDZ2 domain of human tyrosine phosphatase 1E (hPTP1E) (Homo sapiens, UniProt Q12923); assay: Competition CIDNP-KD assay with photo-CIDNP-active reporter peptide; type: binding; details: reporter WVSAV 20 μM (KD,R 170 μM), 5 μM PDZ2; 1000 ms irradiation, single scan; read-out: Competition CIDNP-KD (KD,C), Hβ of reporter WVSAV
T1 construct: the constructs used for the PDZ2 domain of human tyrosine phosphatase 1E; polyhistidine (N); made in house; host or cells: Escherichia coli BL21 (DE3)
T1 sequence (Q12923 1368-1452 limits assumed): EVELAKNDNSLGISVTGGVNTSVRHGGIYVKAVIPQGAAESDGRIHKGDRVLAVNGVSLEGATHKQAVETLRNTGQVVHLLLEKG
Excerpt: Photo-CIDNP hyperpolarization is limited to a particular chemical space of ligands that contain heteroaromatics and heterosubstituted aromatic rings.[24],[29] To address the challenge of limited chemical space, we extend CIDNP-KD to measure the affinity of nonpolarizable ligands through competition with a polarizable reporter ligand R, whose affinity KD,R is known as depicted in Scheme 2. By adding a competitor C, the concentration and photo-CIDNP signal of the reporter ligand R* will increase, indicating the reduced amount of the complex PR* and, by extension, PR.[30]
To calculate the concentration of the ligand–protein complex in the presence of the binding competitor, the ratio of the amplification factors in the presence and absence of the competitor [drawing 6] […]
These competitor ligands lack a tryptophan residue, whereas the reporter ligands WVSAV and WQVSAV are photo-CIDNP-active due to the tryptophan tag. The hyperpolarized signal of WVSAV or WQVSAV in the presence of the PDZ2 domain was measured for increasing concentrations of the peptides QVSAV or ENEQVSAV, respectively. […]
Figure 3 KD determination of nonphoto-CIDNP-active peptides binding to a PDZ2 domain. […] The bound reporter population is plotted, calculated from the hyperpolarized tryptophan Hβ using eq 7. […] Each data point is measured with a single-scan experiment with a laser irradiation duration of (A) 1000 ms or (B) 2000 ms. […]

[2] = target: T1, PDZ2 domain of human tyrosine phosphatase 1E (hPTP1E); assay: 2D [1H,15N]-HSQC chemical shift perturbation titration; type: binding; details: 30 μM 15N PDZ2, pH 6.8, 298 K
Procedure: We compared the affinities of the peptides obtained via CIDNP-KD with the state-of-the-art 2D [^1H, ^15N]-HSQC titration experiments measured with 30 μM PDZ2 (Figure S3).
Expression and purification were carried out as in previously reported procedures. In short, expression in Escherichia coli cells (BL21 (DE3)) and purification via Ni-NTA chromatography as the constructs used for the PDZ2 domain of human tyrosine phosphatase 1E and human PIN1 both contained N-terminal polyhistidine tags. Both protein constructs were measured in an NMR buffer consisting of 50 mM NaCl, 20 mM KPO4, and 10% D2O at pH 6.8. For the control [^1H, ^15N]-HSQC experiments, the PDZ2 domain was expressed in ^15N-enriched minimal medium.[34],[43]
All photo-CIDNP and STD-NMR experiments were recorded at 298 K on a Bruker Avance III HD 600 MHz spectrometer equipped with a cryoprobe. The [^15N, ^1H] – HSQC titration experiments of the PDZ2 domain were performed also at 298 K on another Bruker Avance IIII HD 600 MHz spectrometer equipped with a cryoprobe and SampleJet.
Peak picking was performed with the maximal peak picking tool of Mnova software. Plotting, fitting, and data analysis was done in RStudio with the workflow described above. The [^15N, ^1H]-HSQC reference affinities were analyzed with CCPNMR3.1.[62] The backbone assignment was taken from BMRB 34688.
Fig. S3: 2D [15N, 1H]-HSQC titration of peptides to hPDZ2 domain. The 2D [ 15N, 1H]-
HSQC spectra of the titration series in presence of 30 µM hPDZ2 domain and the
corresponding observed chemical shift difference of A74 plotted versus the peptide
(1 picture or pasted object on this page, not shown here)

Kd [1]: 580 ± 30 µM | Kd ([2]; 15N–1H moiety of A74, read-out: [1H,15N]-HSQC–CSP KD, NH of A74): 155 ± 10 µM | Kd ([2]; range over residues, read-out: [1H,15N]-HSQC–CSP KD range of all residues showing chemical shift perturbation): 90 to 750 µM
Structure (SMILES): CC(C)[C@H](NC(=O)[C@H](C)NC(=O)[C@H](CO)NC(=O)[C@@H](NC(=O)[C@@H](N)CCC(N)=O)C(C)C)C(=O)O [QVSAV] (H-QVSAV-OH)

Reference: publication PMC11228983, “Rapid Protein–Ligand Affinity Determination by Photoinduced Hyperpolarized NMR” (Journal of the American Chemical Society, 2024)
